These results are taken from BindingDB's records for patent US20250034135 (Hangzhou Healzen Therapeutics Co., 2025).

Data set [1] has as its target Apoptosis regulator Bcl-2 (Homo sapiens, UniProt P10415). As to the kind of experiment: Molecular Level Activity Test of Anti-Apoptotic Protein BCL2. How it is done: (§1) The detection of the binding ability between anti-apoptotic protein BCL2 and pro-apoptotic protein Bim was performed using Homogeneous Time-Resolved Fluorescence technology. The reaction of this method occurred in a white shallow 384-well plate, with a total reaction volume of 10 μL. Specifically, it included 2 μL of the compound to be tested (2% DMSO), 4 μL His-tagged recombinant protein, and 4 μL Biotin-tagged BIM protein peptide. After 1 hour of reaction, 5 μL of each Anti-His and streptavidin-tagged XL665 antibody diluents diluted with a detection buffer were added. After incubating at room temperature for 4 hours, the values were read using the Envision multifunctional microplate reader to detect the effect of the compound to be tested on the binding ability of BCL2 to Bim protein peptides. The Envision parameter settings were exciting light at 320 nm, and emitting light at 615 nm and 665 nm. The binding ability of anti-apoptotic proteins to Bim protein peptides was indirectly reflected by the signal ratio of 665 nm and 615 nm. In the reaction, background wells without BCL2 and active wells for full binding of recombinant proteins without compounds and Bim protein peptides were set up.

For data set [2], the target named is Apoptosis regulator Bcl-2 [G101V] (Homo sapiens, UniProt P10415, G101V). As to the kind of experiment: Molecular Level Activity Test of Anti-Apoptotic Protein BCL2 (G101V). The protocol: as §1, with “protein BCL2 (G101V) and pro-apoptotic” for “protein BCL2 and pro-apoptotic”, “reaction, 5 L of each” for “reaction, 5 μL of each”, “of BCL2 (G101V) to BIM” for “of BCL2 to Bim”, “(G101V) to BIM protein peptides.” for “BCL2 to Bim protein peptides.”

Data set [3] concerns the target Isoform Bcl-X(L) of Bcl-2-like protein 1 (Bcl-xL) (Homo sapiens, UniProt Q07817). The data set can be described thus: BCL-XL Enzyme Molecular Level Activity Test. The protocol: as §1, with “In a white” for “The detection of the binding ability between anti-apoptotic protein BCL2 and pro-apoptotic protein Bim was performed using Homogeneous Time-Resolved Fluorescence technology. The reaction of this method occurred in a white”, “384-well plate, a total” for “384-well plate, with a total”, “reaction volume was 10 μL.” for “reaction volume of 10 μL.”, “DMSO), […] His-tagged recombinant” for “DMSO), 4 μL His-tagged recombinant”, “ability of BCL-XL to BIM” for “ability of BCL2 to Bim”, “BCL-XL to BIM protein peptides.” for “BCL2 to Bim protein peptides.”

The next data set addresses CYP3A4 (Homo sapiens, UniProt P08684). The data set can be described thus: CYP3A4 Enzyme Inhibitory Activity. Conditions: recombinant CYP3A4 (CYP450 BACULOSOMES Plus reagent), probe Vivid substrate (Vivid CYP3A4 Green kit).

Chain of Isoform Bcl-X(L) of Bcl-2-like protein 1 (Bcl-xL) (Q07817 whole entry G70A, canonical isoform): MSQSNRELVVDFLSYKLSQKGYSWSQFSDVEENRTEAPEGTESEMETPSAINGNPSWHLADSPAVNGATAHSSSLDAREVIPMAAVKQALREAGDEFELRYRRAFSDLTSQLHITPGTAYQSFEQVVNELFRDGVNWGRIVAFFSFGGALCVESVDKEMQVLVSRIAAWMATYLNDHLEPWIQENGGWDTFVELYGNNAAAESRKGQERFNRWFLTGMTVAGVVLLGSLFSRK
Chain of CYP3A4 (P08684 whole entry): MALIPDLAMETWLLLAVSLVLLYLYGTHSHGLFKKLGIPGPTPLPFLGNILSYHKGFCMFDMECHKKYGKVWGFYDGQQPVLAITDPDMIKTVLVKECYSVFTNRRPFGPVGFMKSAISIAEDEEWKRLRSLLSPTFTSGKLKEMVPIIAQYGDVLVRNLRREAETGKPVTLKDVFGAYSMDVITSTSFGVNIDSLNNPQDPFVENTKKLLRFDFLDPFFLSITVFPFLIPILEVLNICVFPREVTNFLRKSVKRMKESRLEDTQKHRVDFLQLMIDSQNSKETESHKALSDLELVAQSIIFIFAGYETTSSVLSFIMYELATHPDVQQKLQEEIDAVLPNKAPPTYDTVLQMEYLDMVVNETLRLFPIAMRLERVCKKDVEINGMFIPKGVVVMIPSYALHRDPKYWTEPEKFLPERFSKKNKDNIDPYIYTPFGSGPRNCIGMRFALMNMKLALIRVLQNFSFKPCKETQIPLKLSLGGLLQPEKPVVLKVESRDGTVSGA
Protocol for CYP3A4: The inhibitory activity of compounds on human CYP3A4 enzyme was detected using a VIVID™ CYP3A4 GREEN SCRNING KIT reagent kit. The Vivid™ CYP450 screening kit includes a Vivid™ substrate, Vivid™ fluorescence standard, reaction buffer, Vivid™ regeneration system, NADP+ and CYP450 BACULOSOMES™ Plus reagent. Operations were performed following the instructions, and a blank control group was set up without adding any compounds.

In data set [1], `CC(C)c1ccccc1[C@@H]1CCCN1C1CC2(CCN(c3ccc(C(=O)NS(=O)(=O)c4cc([N+](=O)[O-])c(NCC5(F)CCN(C(C)C)CC5)c5c4ncn5C)c(Oc4cnc5[nH]ccc5c4)c3)CC2)C1` [US20250034135, Compound 008] displayed an IC50 of less than 10 nM.
Same read-out and setting: then `CC(C)c1ccccc1[C@@H]1CCCN1C1CC2(CCN(c3ccc(C(=O)NS(=O)(=O)c4cc([N+](=O)[O-])c(NCC5(F)CCN(C6COC6)CC5)c5[nH]cnc45)c(Oc4cnc5[nH]cc(F)c5c4)c3)CC2)C1` [US20250034135, Compound 012], with less than 10 nM; and `CC(C)c1ccccc1[C@@H]1CCCN1C1CC2(CCN(c3cc(Oc4cnc5[nH]ccc5c4)c(C(=O)NS(=O)(=O)c4cc([N+](=O)[O-])c(NCC5(F)CCN(C6COC6)CC5)c5[nH]cnc45)cc3F)CC2)C1` [US20250034135, Compound 020], with less than 10 nM; and `CC(C)c1ccccc1[C@@H]1CCCN1C1CC2(CCN(c3cc(Oc4cnc5[nH]ccc5c4)c(C(=O)NS(=O)(=O)c4cc([N+](=O)[O-])c(NCC5(F)CCN(C6COC6)CC5)c5c4ncn5C)cc3F)CC2)C1` [US20250034135, Compound 036], with less than 10 nM.
Compound `CC(C)c1ccccc1[C@@H]1CCCN1C1CC2(CCN(c3cc(Oc4cnc5[nH]cc(F)c5c4)c(C(=O)NS(=O)(=O)c4cc([N+](=O)[O-])c(NCC5(F)CCN(C6COC6)CC5)c5[nH]cnc45)cc3F)CC2)C1` [US20250034135, Compound 038] displayed an IC50 in data set [1] of less than 10 nM.
Same read-out and setting: the same measure for `COc1ccc(CN2CCN(C3CC4(CCN(c5cc(Oc6cnc7[nH]ccc7c6)c(C(=O)NS(=O)(=O)c6ccc(NCC7(F)CCN(C8COC8)CC7)c([N+](=O)[O-])c6)cc5F)CC4)C3)C(c3ccccc3C(C)C)C2)cc1` (stereo unspecified) [US20250034135, Compound 057]: less than 10 nM.
For the compound `COc1ccc(CN2CCN(C3CC4(C3)CN(c3cc(Oc5cnc6[nH]ccc6c5)c(C(=O)NS(=O)(=O)c5ccc(NCC6(F)CCN(C7COC7)CC6)c([N+](=O)[O-])c5)cc3F)C4)C(c3ccccc3C(C)C)C2)cc1` (stereo unspecified) [US20250034135, Compound 058], the figures for the half-maximal inhibitory concentration (IC50) in data set [2] and in data set [3] were less than 10 nM and greater than 1000 nM, respectively.
For `COc1ccccc1CN1CCN(C2CC3(CCN(c4cc(Oc5cnc6[nH]ccc6c5)c(C(=O)NS(=O)(=O)c5ccc(NCC6(F)CCOCC6)c([N+](=O)[O-])c5)cc4F)CC3)C2)[C@H](c2ccccc2C(C)C)C1` [US20250034135, Compound 185], the IC50 was less than 10 nM in data set [1] and greater than 500 nM in data set [3].
`CC(C)c1ccccc1[C@@H]1CN(Cc2ccccc2F)CCN1C1CC2(CCN(c3cc(Oc4cnc5[nH]ccc5c4)c(C(=O)NS(=O)(=O)c4ccc(NCC5(F)CCOCC5)c([N+](=O)[O-])c4)cc3F)CC2)C1` [US20250034135, Compound 187]: the IC50 is less than 10 nM in data set [1] and greater than 500 nM in data set [3].
Turning to `CC(C)c1ccccc1[C@@H]1CN(Cc2ccc(F)cc2F)CCN1C1CC2(CCN(c3cc(Oc4cnc5[nH]ccc5c4)c(C(=O)NS(=O)(=O)c4ccc(NCC5(F)CCOCC5)c([N+](=O)[O-])c4)cc3F)CC2)C1` [US20250034135, Compound 191], the IC50 in data set [1] was less than 10 nM.
The same measure, in the same setting: the same measure for `CC(C)c1ccccc1[C@@H]1CN(Cc2c(F)cccc2F)CCN1C1CC2(CCN(c3cc(Oc4cnc5[nH]ccc5c4)c(C(=O)NS(=O)(=O)c4ccc(NCC5(F)CCOCC5)c([N+](=O)[O-])c4)cc3F)CC2)C1` [US20250034135, Compound 192]: less than 10 nM.
`CC(C)c1ccccc1[C@@H]1CN(Cc2cnn(C)c2)CCN1C1CC2(CCN(c3cc(Oc4cnc5[nH]ccc5c4)c(C(=O)NS(=O)(=O)c4ccc(NC[C@H]5CC[C@](C)(O)CC5)c([N+](=O)[O-])c4)cc3F)CC2)C1` [US20250034135, Compound 238]: the concentration for half-maximal inhibition (IC50) in data set [3] is greater than 500 nM.
As for `COc1ccc(CN2CCN(C3CC4(CCN(c5ccc(C(=O)NS(=O)(=O)c6ccc(NC[C@H]7CC[C@](C)(O)CC7)c([N+](=O)[O-])c6)c(OC(C=N)Cc6cc[nH]c6)c5)CC4)C3)[C@H](c3ccccc3C(C)C)C2)cc1` (stereo partly specified) [US20250034135, Compound a], the half-maximal inhibitory concentration (IC50) on CYP3A4 stood at 2550 nM.
